Test results: patent publication US7345083B2, “Hydroisoindoline tachykinin receptor antagonists” (Merck & Co., Inc., priority 2004, dated 2008)

melting point: 216.5 to 217.5 °C
SMILES: C[C@@H](O[C@H]1CC[C@@H]2CN(C3=CC(=O)CC3)C[C@H]2[C@@H]1c1ccc(F)cc1)c1cc(C(F)(F)F)cc(C(F)(F)F)c1 [Example 7, 3-[(3aR,4R,5S,7aS)-5-{(1R)-1-[3,5-bis(Trifluoromethyl)phenyl]ethoxy}-4-(4-fluorophenyl)-octahydro-2H-isoindol-2-yl]cyclopent-2-en-1-one]
